Data from patent US12091402B2 (Avilar Therapeutics, Inc., priority 2021, dated 2024).
Where two headings read alike, the source gives them in different places. Where a SMILES comes first, the peptide text is derived from it. Bridges are numbered along the chain shown (N, C = ends). [ ]: non-standard residue; d: D form. Pro(4S-NH2) = N[C@@H]1CN[C@H](C(=O)O)C1

Legend:
[1] = system: HepG2 cells; assay: Cellular uptake assay of AF488-labeled antibody (HepG2); type: cell-based; conditions: HepG2 cells, 100 nM AF488-labeled antibody, 37° C. for 6 hours; class symbols; read-out: Uptake Assay EC50
Experimental: The cellular uptake assay is designed to measure compound-mediated cellular uptake of fluorescently labeled antibody following ternary complex formation with the ASGPR receptor and endocytosis of the entire complex into cells.
Human IgG (Sigma-Aldrich, 14506) was covalently labeled with Alexa Fluor 488 using the Alexa Fluor™ 488 Protein Labeling Kit (Thermo Fisher, A10235) following the manufacturer's instructions. HepG2 cells were plated in DMEM supplemented with 10% FBS at 5,000 cells per well in a 96-well microtiter plate and incubated for approximately 18 hours at 37° C./5% CO2. For studies using human IgG, 100 nM AF488-labeled human IgG antibodies and serial dilutions of IgG-based degrader (0.1% DMSO final concentration) were added to the cells and the mixture was incubated at 37° C. for 6 hours. For studies using DNP, 100 nM AF488-labeled DNP antibodies and serial dilutions of DNP-based degrader (0.1% DMSO final concentration) were added to the cells and the mixture was incubated at 37° C. for 6 hours. HepG2 cells were fixed in 100% methanol at −20° C. for 20 min, washed 3× with PBS, then stained with DAPI (Thermo, Cat #H3570). HepG2 cells were imaged for DAPI and Alexa Fluor 488 using the Operetta CLS, high-content analysis system (PerkinElmer). Data is presented as the ratio of the number of cells positive for hIgG or DNP (AF-488 fluorescence) over the total cell number (measured by DAPI).

[2] = molecular target: IgG; assay: Affinity to IgG by surface plasmon resonance (SPR); type: binding
Experimental: Immobilization levels ranging from 1000-1300 resonance units (RU) are obtained. The running buffer is 10 mM HEPES, pH 7.4, 400 mM NaCl, 0.005% P20, […].

[3] = molecular target: T1, ASGPR (Homo sapiens, UniProt P07306); assay: Affinity to ASGPR by surface plasmon resonance (SPR)
T1 sequence (P07306 1-291): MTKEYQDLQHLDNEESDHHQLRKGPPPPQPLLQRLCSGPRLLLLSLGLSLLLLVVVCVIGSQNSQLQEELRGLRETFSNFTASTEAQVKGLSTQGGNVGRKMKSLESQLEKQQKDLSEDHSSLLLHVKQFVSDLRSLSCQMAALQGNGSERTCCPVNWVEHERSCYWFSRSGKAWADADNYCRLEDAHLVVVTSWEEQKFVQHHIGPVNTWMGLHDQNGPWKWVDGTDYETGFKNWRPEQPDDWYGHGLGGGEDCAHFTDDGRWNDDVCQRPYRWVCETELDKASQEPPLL

[4] = Biacore 8K, 25° C., IgG on CM5 chip, read-out: IgG SPR Binding Kd

SMILES	EC50 [1]	Kd [2, 4]	Kd ([2]; SPR, read-out: IgG KD)	Kd [3]
CC(C)C[C@@H]1NC(=O)[C@H](Cc2c[nH]cn2)NC(=O)[C@H](Cc2c[nH]c3ccccc23)NC(=O)[C@H](C)NC(=O)[C@@H]2CSSC[C@H](NC(=O)[C@H](Cc3c[nH]c4ccccc34)NC(=O)[C@H](C(C)C)NC(=O)[C@H](CC(C)C)NC(=O)[C@H](CCC(=O)O)NC(=O)CNC1=O)C(=O)N[C@@H]([C@@H](C)O)C(=O)N1CCC[C@@H]1C(=O)N1C[C@@H](NC(=O)CCOCCOCCOCCOCCNC(=O)CCCc3cn(CCCCCC(=O)NC(COCCC(=O)NCCOCCOCCOCCOC[C@@]45CO[C@@H](O4)[C@H](Nc4nc(Cl)ns4)[C@@H](O)[C@H]5O)COCCC(=O)NCCOCCOCCOCCOC[C@@]45CO[C@@H](O4)[C@H](Nc4nc(Cl)ns4)[C@@H](O)[C@H]5O)nn3)C[C@H]1C(=O)N[C@@H](CC(=O)O)C(=O)N2 [Compound 14]	< 100 nM	–	–	–
CC(C)C[C@@H]1NC(=O)[C@H](Cc2c[nH]cn2)NC(=O)[C@H](Cc2c[nH]c3ccccc23)NC(=O)[C@H](C)NC(=O)[C@@H]2CSSC[C@H](NC(=O)[C@H](Cc3c[nH]c4ccccc34)NC(=O)[C@H](C(C)C)NC(=O)[C@H](CC(C)C)NC(=O)[C@H](CCC(=O)O)NC(=O)CNC1=O)C(=O)N[C@@H]([C@@H](C)O)C(=O)N1CCC[C@@H]1C(=O)N1C[C@@H](NC(=O)CCOCCOCCNC(=O)CCCc3cn(CCCCCC(=O)NC(COCCC(=O)NCCOCCOCCOCCOC[C@H]4OC[C@H](Nc5nccc(C(F)(F)F)n5)[C@@H](O)[C@H]4O)COCCC(=O)NCCOCCOCCOCCOC[C@H]4OC[C@H](Nc5nccc(C(F)(F)F)n5)[C@@H](O)[C@H]4O)nn3)C[C@H]1C(=O)N[C@@H](CC(=O)O)C(=O)N2 [Compound 12]	< 100 nM	–	–	–
CC(C)C[C@@H]1NC(=O)[C@H](Cc2c[nH]cn2)NC(=O)[C@H](Cc2c[nH]c3ccccc23)NC(=O)[C@H](C)NC(=O)[C@@H]2CSSC[C@H](NC(=O)[C@H](Cc3c[nH]c4ccccc34)NC(=O)[C@H](C(C)C)NC(=O)[C@H](CC(C)C)NC(=O)[C@H](CCC(=O)O)NC(=O)CNC1=O)C(=O)N[C@@H]([C@@H](C)O)C(=O)N1CCC[C@@H]1C(=O)N1C[C@@H](NC(=O)CCOCCOCCOCCOCCNC(=O)CCCc3cn(C[C@@]45CO[C@@H](O4)[C@H](Nc4nc(Cl)ns4)[C@@H](O)[C@H]5O)nn3)C[C@H]1C(=O)N[C@@H](CC(=O)O)C(=O)N2 [Compound 15]	100 to 500 nM	< 100 nM	–	–
CC(C)C[C@@H]1NC(=O)[C@H](Cc2c[nH]cn2)NC(=O)[C@H](Cc2c[nH]c3ccccc23)NC(=O)[C@H](C)NC(=O)[C@@H]2CSSC[C@H](NC(=O)[C@H](Cc3c[nH]c4ccccc34)NC(=O)[C@H](C(C)C)NC(=O)[C@H](CC(C)C)NC(=O)[C@H](CCC(=O)O)NC(=O)CNC1=O)C(=O)N[C@@H]([C@@H](C)O)C(=O)N1CCC[C@@H]1C(=O)N1C[C@@H](NC(=O)CCOCCOCCNC(=O)CCCc3cn(C[C@@]45CO[C@@H](O4)[C@H](Nc4nc(Cl)ns4)[C@@H](O)[C@H]5O)nn3)C[C@H]1C(=O)N[C@@H](CC(=O)O)C(=O)N2 [Compound 13]	100 to 500 nM	–	–	–
CC(C)C[C@@H]1NC(=O)[C@H](Cc2cnc[nH]2)NC(=O)[C@H](Cc2c[nH]c3ccccc23)NC(=O)[C@H](C)NC(=O)[C@@H]2CSSC[C@H](NC(=O)[C@@H](Cc3c[nH]c4ccccc34)NC(=O)[C@H](C(C)C)NC(=O)[C@H](CC(C)C)NC(=O)[C@H](CCC(=O)O)NC(=O)CNC1=O)C(=O)N[C@@H]([C@@H](C)O)C(=O)N1CCC[C@@H]1C(=O)N1C[C@@H](N)C[C@H]1C(=O)N[C@@H](CC(=O)O)C(=O)N2 (stereo in doubt) [Intermediate 24]	–	< 100 nM	< 100 nM	–
C#CCCCC(=O)NCCOCCOCCOCCC(=O)N[C@H]1C[C@H]2C(=O)N[C@@H](CC(=O)O)C(=O)N[C@H]3CSSC[C@H](NC(=O)[C@H](Cc4c[nH]c5ccccc45)NC(=O)[C@H](C(C)C)NC(=O)[C@H](CC(C)C)NC(=O)[C@H](CCC(=O)O)NC(=O)CNC(=O)[C@H](CC(C)C)NC(=O)[C@H](Cc4cnc[nH]4)NC(=O)[C@H](Cc4c[nH]c5ccccc45)NC(=O)[C@H](C)NC3=O)C(=O)N[C@@H]([C@@H](C)O)C(=O)N3CCC[C@@H]3C(=O)N2C1 [Intermediate 9]	–	< 100 nM	–	–
C#CCCCC(=O)NCCOCCOCCC(=O)N[C@H]1C[C@H]2C(=O)N[C@@H](CC(=O)O)C(=O)N[C@H]3CSSC[C@H](NC(=O)[C@H](Cc4c[nH]c5ccccc45)NC(=O)[C@H](C(C)C)NC(=O)[C@H](CC(C)C)NC(=O)[C@H](CCC(=O)O)NC(=O)CNC(=O)[C@H](CC(C)C)NC(=O)[C@H](Cc4cnc[nH]4)NC(=O)[C@H](Cc4c[nH]c5ccccc45)NC(=O)[C@H](C)NC3=O)C(=O)N[C@@H]([C@@H](C)O)C(=O)N3CCC[C@@H]3C(=O)N2C1 [Intermediate 6]	–	< 100 nM	–	–
CC(C)C[C@@H]1NC(=O)[C@H](C)NC(=O)CNC(=O)[C@H](CC(C)C)NC(=O)[C@H](Cc2cnc[nH]2)NC(=O)[C@H](Cc2c[nH]c3ccccc23)NC(=O)[C@H](C)NC(=O)[C@@H]2CSSC[C@H](NC(=O)[C@H](Cc3c[nH]c4ccccc34)NC(=O)[C@H](C(C)C)NC1=O)C(=O)N[C@@H]([C@@H](C)O)C(=O)N1CCC[C@@H]1C(=O)N1C[C@@H](N)C[C@H]1C(=O)N[C@@H](CC(=O)O)C(=O)N2 [Intermediate 17] (cyclo(ALVWCT[dP][Pro(4S-NH2)]DCAWHLG); disulfide 5-10)	–	< 100 nM	< 100 nM	–
CC(C)C[C@@H]1NC(=O)[C@H](Cc2cnc[nH]2)NC(=O)[C@H](Cc2c[nH]c3ccccc23)NC(=O)[C@H](C)NC(=O)[C@@H]2CSSC[C@H](NC(=O)[C@H](Cc3c[nH]c4ccccc34)NC(=O)[C@H](C(C)C)NC(=O)[C@H](CC(C)C)NC(=O)[C@H](CCC(N)=O)NC(=O)CNC1=O)C(=O)N[C@@H]([C@@H](C)O)C(=O)N1CCC[C@@H]1C(=O)N1C[C@@H](N)C[C@H]1C(=O)N[C@@H](CC(=O)O)C(=O)N2 [Intermediate 18] (cyclo(AWHLGQLVWCT[dP][Pro(4S-NH2)]DC); disulfide 10-15)	–	< 100 nM	< 100 nM	–
C#CCCCC(=O)NCCOCCOCCOCCOCCC(=O)N[C@H]1C[C@H]2C(=O)N[C@@H](CC(=O)O)C(=O)N[C@H]3CSSC[C@H](NC(=O)[C@H](Cc4c[nH]c5ccccc45)NC(=O)[C@H](C(C)C)NC(=O)[C@H](CC(C)C)NC(=O)[C@H](CCC(=O)O)NC(=O)CNC(=O)[C@H](CC(C)C)NC(=O)[C@H](Cc4cnc[nH]4)NC(=O)[C@H](Cc4c[nH]c5ccccc45)NC(=O)[C@H](C)NC3=O)C(=O)N[C@@H]([C@@H](C)O)C(=O)N3CCC[C@@H]3C(=O)N2C1 [Intermediate 4]	–	< 100 nM	< 100 nM	–
CC(C)C[C@@H]1NC(=O)[C@H](Cc2cnc[nH]2)NC(=O)[C@H](Cc2c[nH]c3ccccc23)NC(=O)[C@H](C)NC(=O)[C@@H]2CSSC[C@H](NC(=O)[C@H](Cc3c[nH]c4ccccc34)NC(=O)[C@H](C(C)C)NC(=O)[C@H](CC(C)C)NC(=O)[C@H](CCC(=O)O)NC(=O)CNC1=O)C(=O)N[C@@H]([C@@H](C)O)C(=O)N1CCC[C@@H]1C(=O)N1C[C@@H](NC(=O)CCCc3cn(C[C@H]4OC[C@H](Nc5nccc(C(F)(F)F)n5)[C@@H](O)[C@H]4O)nn3)C[C@H]1C(=O)N[C@@H](CC(=O)O)C(=O)N2 [Compound 80]	–	–	< 100 nM	> 1000 nM
C#CCCCC(=O)NCCOCCOCCOCCOCCN[C@@H](CC(=O)O)C(=O)N[C@H]1CSSC[C@@H](C(=O)N[C@H](C(N)=O)[C@@H](C)O)NC(=O)[C@H](Cc2c[nH]c3ccccc23)NC(=O)[C@H](C(C)C)NC(=O)[C@H](CC(C)C)NC(=O)[C@H](CCC(=O)O)NC(=O)CNC(=O)[C@H](CC(C)C)NC(=O)[C@H](Cc2cnc[nH]2)NC(=O)[C@H](Cc2c[nH]c3ccccc23)NC(=O)[C@H](C)NC1=O [Intermediate 3]	–	< 100 nM	–	–
C#CCCCC(=O)N[C@H]1C[C@H]2C(=O)N[C@@H](CC(=O)O)C(=O)N[C@H]3CSSC[C@H](NC(=O)[C@H](Cc4c[nH]c5ccccc45)NC(=O)[C@H](C(C)C)NC(=O)[C@H](CC(C)C)NC(=O)[C@H](CCC(=O)O)NC(=O)CNC(=O)[C@H](CC(C)C)NC(=O)[C@H](Cc4cnc[nH]4)NC(=O)[C@H](Cc4c[nH]c5ccccc45)NC(=O)[C@H](C)NC3=O)C(=O)N[C@@H]([C@@H](C)O)C(=O)N3CCC[C@@H]3C(=O)N2C1 [Intermediate 8]	–	–	< 100 nM	–
CC(C)C[C@@H]1NC(=O)[C@H](Cc2cnc[nH]2)NC(=O)[C@H](Cc2c[nH]c3ccccc23)NC(=O)[C@H](C)NC(=O)[C@@H]2CSSC[C@H](NC(=O)[C@H](Cc3c[nH]c4ccccc34)NC(=O)[C@H](C(C)C)NC(=O)[C@H](CC(C)C)NC(=O)[C@H](CCC(=O)O)NC(=O)CNC1=O)C(=O)N[C@@H]([C@@H](C)O)C(=O)N1CCC[C@@H]1C(=O)N1C[C@H](N)C[C@H]1C(=O)N[C@@H](CC(=O)O)C(=O)N2 [Intermediate 30]	–	–	< 100 nM	–
